# Assays:
# [1] = system: human CD47; assay: CD47 mRNA expression in Hep3B cells (quantitative RT-PCR); type: cell-based; settings: 48 hours after transduction, mRNA normalized to actin, FIG. 7A
# Experimental: Functional Assay: The effect of different CD47 shRNA targeting sequences on CD47 expression was determined by measuring mRNA expression. Hep3B hepatocellular carcinoma cells were transduced with a lentiviral vector containing CD47 shRNA sequences. After 48 hours, cells were lysed and RNA was extracted using the RNeasy mini kit from Qiagen. cDNA was then synthesized from RNA using SuperScript VILO from Invitrogen. The samples were then analyzed by quantitative RT-PCR using an Applied Biosystems StepOne PCR machine. CD47 expression was detected with SYBR Green from Invitrogen using the forward primer (5′-[…]-3′) (SEQ ID NO: 63) and reverse primer (5′-GCCTCTTGACATTCTCCTC-3′) (SEQ ID NO: 64). The samples were normalized by measuring actin expression using the forward primer (5′-AGCGCGGCTACAGCTTCA-3′) (SEQ ID NO: 61) and reverse primer (5′-[…]-3′) (SEQ ID NO: 65). The relative expression of CD47 was determined by its Ct value normalized to the level of actin for each sample.
# [2] = system: human FDPS; assay: Functional assay for FDPS mRNA reduction (quantitative RT-PCR); type: cell-based; settings: HepG2 cells, 48 hours after transduction, mRNA normalized to actin; FIG. 4A
# Experimental: (§1) Vector Construction: For FDPS shRNA, oligonucleotide sequences containing BamHI and EcoRI restriction sites were synthesized by MWG operon. Oligonucleotide sequences were annealed by incubation at 70 degrees Celsius and cooling to room temperature. Annealed oligonucleotides were digested with the restriction enzymes BamHI and EcoRI for one hour at 37 degrees Celsius and then the enzymes were heat-inactivated at 70 degrees Celsius for 20 minutes. In parallel, the lentiviral vector was digested with the restriction enzymes BamHI and EcoRI for one hour at 37 degrees Celsius. […] The DNA concentration was determined and the vector to oligo sequence was ligated in the ratio 3:1 insert to vector. […] Cells were collected after 2-4 days and protein and RNA was analyzed for FDPS expression.
# Functional Assay for mRNA Reduction: The effect of different FDPS short homology RNA (shRNA) targeting sequences on FDPS expression was determined by measuring mRNA expression. […] The samples were then analyzed by quantitative RT-PCR using an Applied Biosystems StepOne PCR machine. FDPS expression was detected with SYBR Green from Invitrogen using the forward primer (5′-[…]-3′) (SEQ ID NO: 59) and reverse primer (5′-[…]-3′) (SEQ ID NO: 60) with standard conditions for polymerase chain reaction analysis. […] The relative expression of FDPS was determined by its Ct value normalized to the level of actin for each sample.
# [3] = system: FDPS; assay: FDPS immunoblot in HepG2 cells infected with lentiviral vectors; type: cell-based, human; settings: 48 hours, FIG. 4B
# Experimental: HepG2 human hepatocellular carcinoma cells were infected with lentiviral vectors containing either the H1 promoter and a FDPS shRNA (SEQ ID NO: 4) sequence or the EF-1alpha promoter and the following miR30-based FDPS sequences:
# After 48 hours, cells were lysed and an immunoblot was performed using an anti-FDPS (Thermo Scientific) and an anti-actin (Sigma) antibody for a protein loading control. […] Treatment with the miR30-based FDPS sequences decreased FDPS expression.
# [4] = system: PC3 tumors; assay: PC3 tumor growth in NOD/SCID mice, transduced cells with or without zoledronic acid; type: in vivo; settings: single dose of zoledronic acid
# Experimental: Protocol overview for co-administration of LV-shRNA-FDPS (farnesyl diphosphate synthase) with or without zoledronic acid in mice implanted with human prostate cancer cell line PC3. Tumor cells were cultured in vitro, then transduced with lentivirus vector control with a scrambled sequence (nonfunctional) shRNA insert and an expression cassette for firefly luciferase, or LV-FDPS with a shRNA capable of reducing expression of FDPS mRNA and an expression cassette for firefly luciferase. The transduced tumor cells were implanted on the flank of immune deficient mice by subcutaneous injection. Once tumors reached approximately 200 mm^3 volume, all mice receive a single dose of zoledronic acid (100 micrograms per kilogram body weight, which is similar to a standard human dose) in saline. 7 days after zoledronic acid injection, an imaging study was repeated to measure volume and photon intensity of individual tumors.
# Day—4: Material Preparation and Delivery. Prepare lenti-vector control and lenti-shRNA-FDPS transduced PC3 cells. • 1. […]
# Effects of LV-shRNA-FDPS with or without zoledronic acid on PC3 tumor growth in NOD/SCID mice. […] A bioluminescence imaging study on Day 8 determined the average tumor sizes prior to zoledronic acid treatment (FIG. 10A). The photon intensity for tumors was measured with a CCD light capture system.
# [5] = system: human cMyc; assay: cMyc mRNA expression in HepG2 cells (quantitative PCR); type: cell-based; settings: 48 hours after transduction, mRNA normalized to actin, FIG. 8A
# Experimental: as §1, with “cMyc” for “FDPS”
# Functional Assay: The effect of different cMyc shRNA targeting sequences on cMyc expression was determined by measuring mRNA expression. […] The samples were then analyzed by quantitative PCR using an Applied Biosystems StepOne PCR machine. cMyc expression was detected with SYBR Green from Invitrogen using the forward primer (5′-GGACTATCCTGCTGCCAA-3′) (SEQ ID NO: 69) and reverse primer (5′-GCCTCTTGACATTCTCCTC-3′) (SEQ ID NO: 64). […] The relative expression of cMyc was determined by its Ct value normalized to the level of actin for each sample.
# [6] = system: cMyc; assay: cMyc immunoblot in SNU449 cells infected with lentiviral vectors; type: cell-based, human; settings: 48 hours, FIG. 8B
# Experimental: After 48 hours, cells were lysed and an immunoblot was performed using an anti-cMyc (Santa Cruz) and an anti-actin (Sigma) antibody for a protein loading control.
compound,measurement,setting,value
"CD47 sequence 3: CD47 shRNA, SEQ ID NO: 7 (DNA CCTCCTTCGTCATTGCCATCTCGAGATGGCAATGACGAAGGAGGTTTTT)",relative expression level of human CD47,[1],most significant inhibition
"FDPS-4: FDPS shRNA, SEQ ID NO: 4; used with H1 promoter in FIG. 4B (DNA GCAGAAGGAGGCTGAGAAAGTCTCGAGACTTTCTCAGCCTCCTTCTGCTTTTT)",relative expression level of human FDPS,[2],most significant inhibition
same,FDPS protein expression,[3],significantly decreased
"CD47 sequence 1: CD47 shRNA, SEQ ID NO: 5 (DNA GGTGAAACGATCATCGAGCCTCGAGGCTCGATGATCGTTTCACCTTTTT)",relative expression level of human CD47,[1],most significant inhibition
O=P(O)(O)C(O)(Cn1ccnc1)P(=O)(O)O [zoledronic acid],toxicity in mice,[4],not toxic
"FDPS-2: FDPS shRNA, SEQ ID NO: 2 (DNA GCAGGATTTCGTTCAGCACTTCTCGAGAAGTGCTGAACGAAATCCTGCTTTTT)",relative expression level of human FDPS,[2],most significant inhibition
"cMyc shRNA Sequence 2: cMyc shRNA, SEQ ID NO: 11 (DNA GCGAACACACAACGTCTTGGACTCGAGTCCAAGACGTTGTGTGTTCGCTTTT)",relative expression level of human cMyc,[5],most significant inhibition
"cMyc shRNA Sequence 4: cMyc shRNA, SEQ ID NO: 13; used in FIG. 8B (GAGAATGTCAAGAGGCGAACACTCGAGTGTTCGCCTCTTGACATTCTCTTTTT)",cMyc protein expression,[6],significantly decreased

# From patent publication US12359203B2, “Combination vectors and methods for treating cancer” (American Gene Technologies International Inc., priority 2016, dated 2025)
